Laboratory results published in patent publication US20040109845A1, “Method for inhibiting articular cartilage matrix calcification” (priority 2001, published 2004).

Legend:
[1] = tested on: TGase activity (tTGase and Factor XIIIa) in meniscal cells; experiment: TGase activity in cultured knee meniscal cells (BP incorporation into N,N-dimethylcasein); assay type: cell-based, human; conditions: monolayer culture, 48-72 hrs; IL-1β, TGFβ, TNFα 10 ng/ml; Noc-12 2.5-25 μM; Sin-1 1-10 μM
Procedure: Meniscal cells were maintained in DMEM high glucose and supplemented with 10% FCS, 1% L-glutamine, 100 units/ml Penicillin and 50 μg/ml Streptomycin (Omega Scientific, Tarzana, Calif.) and cultured at 37° C. with 5% CO2. In monolayer cell culture studies involving stimulation by TGFE[…] or IL-1, the cells were placed in DMEM high glucose containing 1% FCS, 1% L-glutamine, 100 units/ml Penicillin and 50 μg/ml Streptomycin. In all other studies, the cells were cultured in complete medium (as described above). Only primary or first passage meniscal cells were studied.
TGase activity was measured by modifications to a previously described method (35). Specifically, we coated 96 well ImmunoModule plates (Nunc, Rochester, N.Y.) with 200 μl of 20 mg/ml N,N-dimethylcasein for 1 hr at 23° C. The N,N-dimethylcasein was removed and nonspecific protein binding was blocked by adding 3% BSA in 100 mM Tris, pH 8.5, 150 mM NaCl, 0.05% Tween-20 (TBST) to each well for an additional 1 hr at 23° C. Then, aliquots of 5 μg of total cellular protein from meniscal or TC28 cells that had been lysed and sonicated (in 5 mM Tris HCl, 0.25 M sucrose, 0.2 mM MgSO4, 2 mM DTT, 0.4 mM PMSF, 0.4% Triton X100, pH 7.5), were added to the plate in triplicate. To measure TGase in extracts of whole menisci, 50 mg dry weight of tissue from the central zone of each medial meniscus was used as the source (after solubilization and sonication) for aliquots of 5 μg of soluble protein. Fifty μl of solution A (100 mM Tris, pH 8.5 and 20 mM CaCl2) was added to all samples for TGase assay, followed by the addition of 50 μl of solution B (100 mM Tris, pH 8.5, 40 mM DTT and freshly added 2 mM 5-(Biotinamido) pentylamine (BP)). The plates were incubated for 1 hr at 37° C. The wells were washed once with TBST containing 1 mM EDTA and then three times with TBST. One hundred μl of a 1:500 dilution of streptavidin-AP in 3% BSA/TBST was added to each well for 1 hr at 23° C. The wells were washed twice with TBST, and 200 μl of solution C (100 mM Tris, pH 9.8, mM NaCl, 5 mM MgCl2, 1 mg/ml of freshly added p-nitrophenylphosphate) was added to each well. Readings at OD410 were taken over 15 minutes. Purified guinea pig liver TGase (Sigma) was used to prepare a standard curve. TGase activity was designated as the amount of BP incorporated into casein (per μg cellular DNA, determined chromogenically following precipitation in perchlorate (28), or, where indicated, per μg protein, determined as previously described (28)).
To directly induce expression of each TGase in meniscal cells, 5×10^5 primary cells were plated in 60 mm dishes and allowed to adhere overnight. We modified (28) the manufacturer's protocol for the Lipofectamine Plus kit (Life Technologies, Grand Island, N.Y.). To optimize the transfection of meniscal cells, we added 2.0 ml of serum-free DMEM/F12 containing 0.00015% digitonin to washed cells and incubated for 3 min at 23° C. Then, media was removed, and cells transfected at 37° C. for 7 hrs, followed by removal of the media and addition of complete DMEM high glucose medium. Transfection of each TGase into TC28 cells was done by the same procedure, with the exception that the digitonin permeabilization step was omitted.

[2] = tested on: meniscal cells and TC28 cells; experiment: Matrix calcification, quantitative Alizarin Red S binding assay; assay type: cell-based, human; conditions: polyHEME culture up to 10 days; cytokines 10 ng/ml or TGase transfection
Procedure: TC28 cells and meniscal cells were transfected with empty plasmid or a TGase expression construct, and then transferred to polyHEME and cultured for up to 10 days, as described above. For comparison purposes, control untransfected cells were treated with IL-1 or TGFβ(10 ng/ml each) for up to 10 days. To measure matrix calcification, media and cells were removed from the PolyHEME-coated dishes, and 1 ml Alizarin Red S solution (0.5% v/v Alizarin Red S, pH 5.0) added to washed plates at 23° C. for 10 min. After further washing, 100 mM Cetylpyridium Chloride was added for 10 min to release the remaining calcium-bound Alizarin Red S. The solution was collected and read at OD570, with 1.0 OD570=1 unit of Alizarin Red released per μg of DNA per culture dish. n=6 each, studied in triplicate, and using 6 different knee meniscal donors. *p<0.05.
To promote matrix calcification in short-term cultures, we modified a nonadherent chondrocyte culture system (37), and assessed cells that formed calcifying nodules over 10 days in culture. In brief, meniscal and TC28 cells, at 24 hours after the transfection, were washed and removed from the dish using 0.2 mg/ml EDTA, pH 8.0, then transferred to 6 well plates that had been previously coated with a 10% (wt./v) in 95% ethanol solution of Poly (2-Hydroxyethyl methacrylate) (polyHEME). […]
To assay calcification of the pericellular matrix of meniscal cells and TC28 cells, we used a quantitative Alizarin Red S binding assay (38). […] The solution was collected and read at OD570 on a SpectraMAX microplate reader (Molecular Devices, Sunnyvale, Calif.), with 1 OD570=1 unit of Alizarin Red released per μg of DNA per culture dish. We extracted matrix crystals from plates under each condition using a papain-hypochlorite method (39), and the crystals were embedded in Spurr epoxy resin, sectioned, and viewed on a Philips EM340 transmission electron micrograph and analyzed by electron diffraction (40,41).

[3] = tested on: S100A11 mRNA in human articular chondrocytes; experiment: S100A11 mRNA expression by RT-PCR; assay type: cell-based; conditions: 10 ng/ml, 24 hours, relative to L30
Procedure: Normal human knee articular chondrocytes were treated in culture with IL-1 or IGF-I (10 ng/ml) for 24 hours and ascertained for S100A11 mRNA expression by RT-PCR, relative to the loading control L30, a ribosomal housekeeping gene. Results for induction of S100 A11 representative of 3 separate experiments with different donors.

Question: With “IL-1β: Human recombinant IL-1β purchased from R&D Systems” as the substance, how does the “Induction of TGase activity in cultured normal knee meniscal cells” value [1] read?
Answer: Its value is “induced increased TGase activity in a donor age-dependent manner”.

Question: What about the “Matrix calcification (bound Alizarin Red S)” value [2] of the same substance?
Answer: The value was “significantly increased matrix calcification”.

Question: And the “S100A11 mRNA expression” value [3]?
Answer: The value was “induce mRNA expression of S100A11”.
